{"source": "patent USRE38352E1", "about": "“Polymerase chain reaction assays for monitoring antiviral therapy and making therapeutic decisions in the treatment of acquired immunodeficiency syndrome” (priority 1992, dated 2003)", "system": "plasma HIV RNA", "assay": "Plasma HIV RNA copy number by cDNA gene amplification (PCR) and enzyme-linked affinity assay", "assay_type": "in vivo, human (HIV antibody-positive subjects)", "source_text": "After informed consent was obtained, whole blood samples were collected by venipuncture in the presence of acid-citrate-dextrose as an anticoagulant. A single plasma sample was collected from 39 HIV antibody-positive subjects who were not receiving antiretroviral therapy at the time of collection and from 33 HIV antibody-positive subjects who were currently on and had received AZT for a minimum of 3 mo.\nTwo plasma samples were collected from an additional 27 subjects before and 1 month after initiation of dideoxynucleoside therapy. 18 of these subjects received 500 mg/d of AZT orally. Seven subjects received a combination of zidovudine (150-600 mg/d) and 2′,3′-dideoxyinosine (ddI) (134-500 mg/d). Two patients received 500 mg/d of ddI alone (see Table I for individual subject characteristics). Finally, nine of these subjects had two plasma samples taken 1-3 wk. before initiating antiretroviral therapy and two plasma samples taken 1 and 2 mo. after commencing therapy. Plasma was separated within 4 h. by centrifugation at 500 g for 10 min. A second centrifugation was performed on the plasma at 500 g for 30 min. to remove any cellular material. 200 μl of plasma was then mixed with 200 μl of a solution containing 5M guanidinium thiocyanate, vortexed briefly, and stored at −70° C. until further use. All samples were assayed within 3 mo. of collection. To decrease variance, all specimens to be compared from the same subject were run in the same assay.\nRNA was extracted from plasma by the method described in Chomczynski et al., 1987, Ann. Biochem. 162:156-159. Briefly, 200 μl of clarified plasma to which 200 μl of 5M guanidinium thiocyanate had previously been added was extracted with phenol/chloroform and precipitated with isopropanol. The resulting pellet was then washed in 75% ethanol, dried, and brought up in diethylpyrocarbonate treated, glass distilled water.\nHIV RNA was transcribed to cDNA using Moloney murine leukemia virus reverse transcriptase (Bethesda Research Laboratories, Gaithersburg, Md.) by the method described in Kawasaki, 1990, “In PCR Protocols: A Guide to Methods and Applications” pp. 21-27, M. A. Innis, D. H. Gelfand, J. J. Sninsky, and T. J. White, eds. Academic Press, Berkeley, Calif. Oligomers used for amplification included SK38, SK39, and SK19 (Kellog et al., 1990, “In PCR Protocols: A Guide to Methods and Applications,” pp. 337-348, M. A. Innis, D. H. Gelfand, J. J. Sninsky, and T. J. White, eds. Academic Press, Berkeley, Calif.). Biotinylation of SK38 and horseradish peroxidase (HRP) labeling of probe SK19 were prepared as described in Levenson et al., 1990, “In PCR Protocols: A Guide to Methods and Applications,” pp. 99-112M. S. Innis, D. H. Gelfand, J. J. Sninsky, and T. J. White, eds. Academic Press, Berkeley, Calif. Amplification of HIV cDNA was carried out as follows: to a 100-μl reaction mixture was added the cDNA, 50 pmol of primers SK38 and SDK39, […] of each dNTP, 10 mM Tris (pH 8.3), 2.5 mM MgCl2, 50 mM KCl, and 2.5 U of recombiTaq DNA polymerase (Perkin-Elmer Cetus, Norwalk, Conn.). The mixture was then overlaid with 50 μl of mineral oil. Tubes were placed in a DNA thermal cycler (Perkin-Elmer Cetus) for 30 cycles of amplification with the following program: 95° C./30 s, 55° C./30s, and 72° C./60 s for denaturation, annealing, and extension, respectively. Negative and positive controls which included both high and low copy number HIV RNA and DNA were added at each step.\nTo detect and quantitate PCR product, 96-well microplates (Maxisorp; Nunc, Naperville, Ill.) were coated with 100 μl of a 0.1 mg/ml solution of avidin (Sigma Chemical Co., St. Louis, Mo.) in 50 mM Na2CO3 (pH 9.6) overnight at room temperature. Wells were then washed twice with PBS. Wells were then filled with 300 μl of a blocking solution containing 5X Denhardt's solution, 1% gelatin (Sigma), […] sheared herring sperm DNA (Promega Biotec, Madison, Wis.) at least overnight at 4° C. […]", "note": "“And” between values parts separate entries of the source, which are not always exact repeats. Equal entries are not always repeated.", "data": [{"smiles": "Cc1cn([C@H]2C[C@H](N=[N+]=[N-])[C@@H](CO)O2)c(=O)[nH]c1=O", "note": "[AZT, zidovudine]", "values": [{"measurement": "mean HIV RNA copy number", "setting": "14 subjects on AZT with CD4 count <200/mm^3", "result": "295±5 per 200 μl of plasma"}, {"measurement": "mean HIV RNA copy number", "setting": "19 subjects on AZT with CD4 count >200/mm^3, below level of detection", "result": "16±5 per 200 μl of plasma"}, {"measurement": "mean plasma HIV RNA copy number", "setting": "33 subjects currently on AZT (minimum 3 mo), mean±SEM, untreated 690±360", "result": "134±219 per 200 μl of plasma"}, {"measurement": "subjects with positive HIV RNA signal", "setting": "AZT-treated subjects with <200 CD4 cells", "result": "9 of 14"}, {"measurement": "subjects with positive HIV RNA signal", "setting": "all subjects receiving AZT, untreated 32 of 39", "result": "16 of 33"}, {"measurement": "Post HIV RNA", "setting": "in vivo", "result": "2769/437 copy number/200 μl of plasma"}, {"measurement": "Pre HIV RNA", "setting": "in vivo", "result": "2769/437 copy number/200 μl of plasma"}, {"measurement": "subjects with detectable HIV RNA signal", "setting": "in vivo", "result": "7 of 19"}, {"measurement": "Post HIV RNA", "setting": "individual patient, 1 mo after initiation, AZT 500 mg/d", "result": "77 copy number/200 μl of plasma and 57 copy number/200 μl of plasma and 42 copy number/200 μl of plasma and 94/94 copy number/200 μl of plasma and 0/0 copy number/200 μl of plasma (2×) and 65 copy number/200 μl of plasma and 52 copy number/200 μl of plasma and 50 copy number/200 μl of plasma and 45 copy number/200 μl of plasma and 95/95 copy number/200 μl of plasma and 0 copy number/200 μl of plasma (3×) and 72 copy number/200 μl of plasma and 925 copy number/200 μl of plasma and 90 copy number/200 μl of plasma"}, {"measurement": "Pre HIV RNA", "setting": "individual patient, before initiation of therapy", "result": "100 copy number/200 μl of plasma and 87 copy number/200 μl of plasma and 40 copy number/200 μl of plasma and 94/94 copy number/200 μl of plasma and 0/0 copy number/200 μl of plasma (2×) and 93 copy number/200 μl of plasma and 105 copy number/200 μl of plasma and 123 copy number/200 μl of plasma and 78 copy number/200 μl of plasma and 95/95 copy number/200 μl of plasma and 301 copy number/200 μl of plasma and 958 copy number/200 μl of plasma and 2014 copy number/200 μl of plasma and 106 copy number/200 μl of plasma and 130 copy number/200 μl of plasma and 550 copy number/200 μl of plasma"}]}]}
